Consider eleven compounds from patent US8008303B2, “Biphenyl derivatives and their use in treating hepatitis C” (AstraZeneca AB, priority 2005, dated 2011).

A word on the IC50: it is the concentration that gives 50% inhibition. The low end stands for higher potency, the high end for lower potency.

The test system of series [1] is HCV replicon cells Huh 9B. The format is cell-based.
Series [2] has as its system HCV replicon cells Huh 9B. Put plainly: HCV replicon assay (luciferase readout). The class given is cell-based. In outline: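 Compounds, made up at twice final strength (final DMSO 1%), were added to subgenomic replicon cells one day after plating. Incubation then ran 72 h at 37 °C, 5% CO2, without G418. Replication was quantified as firefly luciferase luminescence in lysed cells, with cytotoxicity assessed on a duplicate clear plate.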
A general note: In antiviral work, replicon cells carry a viral genome segment that copies itself.

Where [3] appears, read: concentration reducing total cell area by 50% relative to DMSO controls, methylene blue, absorbance 620 nm, 72 h incubation.
Setting [4] is: Hepatitis C virus, 72 h, concentration reducing replicon level (luciferase activity) by 50% vs untreated cell control, 72 h incubation.

Like-named read-outs stand apart in the source and are kept apart here. Where only a bound is given, the exact number is not on record here.

Turning to `Cc1ccc(C(=O)Nc2ccc(N3CCOCC3)cc2)cc1-c1ccc(C(=O)NCc2cccc(C(F)(F)F)c2)cc1` [Example 10, 6-Methyl-biphenyl-3,4′-dicarboxylic acid 3-[(4-morpholin-4-yl-phenyl)-amide] 4′-(3-trifluoromethyl-benzylamide)], in series [1], the TD50 entry was “* (key: * < 50 μM; ** > 50 μM)”. In series [2], this compound showed an IC50 of 1000 to 5000 nM.

Regarding `Cc1ccc(C(=O)Nc2ccc(N3CCOCC3)cc2)cc1-c1ccc(C(=O)NCc2cccc(Cl)c2)cc1` [Example 83, 6-Methyl-biphenyl-3,4′-dicarboxylic acid 4′-(3-chloro-benzylamide) 3-[(4-morpholin-4-yl-phenyl)-amide]], the TD50 result in series [1] is “** (key: * < 50 μM; ** > 50 μM)”. This compound gave an IC50 in series [2] of 1000 to 5000 nM.

`Cc1ccc(C(=O)Nc2ccc(N3CCOCC3)cc2)cc1-c1ccc(C(=O)Nc2ccc3ncsc3c2)cc1` [Example 46, 6-Methyl-biphenyl-3,4′-dicarboxylic acid 4′-benzothiazol-6-ylamide 3-[(4-morpholin-4-yl-phenyl)-amide]]: in series [1], the TD50 entry is reported as “** (key: * < 50 μM; ** > 50 μM)”. The IC50 in series [2] is above 5000 nM.

Take `CN1CCN(C(=O)Nc2ccc(OC(F)(F)F)c(-c3ccc(C(=O)Nc4ccc(CN5CCN(S(C)(=O)=O)CC5)cc4)cc3)c2)CC1` [Example 239, 4-Methyl-piperazine-1-carboxylic acid {4′-[4-(4-methanesulfonyl-piperazin-1-ylmethyl)-phenylcarbamoyl]-6-trifluoromethoxy-biphenyl-3-yl}-amide]: the TD50 result in series [1] (setting [3]) is recorded as “* (* < 50 μM)”. Further, in series [2] (setting [4]), the IC50 is below 1000 nM.

On to `Cc1ccc(NC(=O)C2CC2)cc1-c1ccc(C(=O)NCc2ccc(N3CCN(C)CC3)cc2)cc1` [Example 217, 5′-(Cyclopropanecarbonyl-amino)-2′-methyl-biphenyl-4-carboxylic acid 4-(4-methyl-piperazin-1-yl)-benzylamide], for which, in series [1] (setting [3]), the TD50 entry is recorded as “* (* < 50 μM)”. In series [2] (setting [4]), this compound yielded an IC50 above 5000 nM.

As to `Cc1ccc(C(=O)Nc2ccc(N(C)C)cc2)cc1-c1ccc(C(=O)Nc2ccc(CN3CCS(=O)(=O)CC3)cc2)cc1` [Example 130, 6-Methyl-biphenyl-3,4′-dicarboxylic acid 3-[(4-dimethylamino-phenyl)-amide] 4′-{[4-(1,1-dioxo-1lambda*6*-thiomorpholin-4-ylmethyl)-phenyl]-amide}], in series [1], the TD50 entry is recorded as “* (key: * < 50 μM; ** > 50 μM)”. In series [2], the IC50 is below 1000 nM.

Take `Cc1ccc(NC(=O)CCC2CCCCC2)cc1-c1ccc(C(=O)Nc2ccc(CN3CCS(=O)(=O)CC3)cc2)cc1` [Example 163, 5′-(3-Cyclohexyl-propionylamino)-2′-methyl-biphenyl-4-carboxylic acid [4-(1,1-dioxo-1lambda*6*-thiomorpholin-4-ylmethyl)-phenyl]-amide]: in series [1] (setting [3]), the TD50 entry was “* (* < 50 μM)”. For the same compound, the concentration for half-maximal inhibition (IC50) in series [2] (setting [4]) was below 1000 nM.

With `Cc1ccc(C(=O)Nc2ccc(N3CCOCC3)cc2)cc1-c1ccc(C(=O)N2CCN(c3cccc(Cl)c3Cl)CC2)cc1` [Example 37, 4′-[4-(2,3-Dichloro-phenyl)-piperazine-1-carbonyl]-6-methyl-biphenyl-3-carboxylic acid (4-morpholin-4-yl-phenyl)-amide], the TD50 result in series [1] (setting [3]) is recorded as “** (** > 50 μM)”. In series [2] (setting [4]), this compound came in with an IC50 above 5000 nM.

In the case of `Cc1ccc(C(=O)Nc2ccc(N3CCOCC3)cc2)cc1-c1ccc(C(=O)Nc2ccc3cn[nH]c3c2)cc1` [Example 67, 6-Methyl-biphenyl-3,4′-dicarboxylic acid 4′-[(1H-indazol-6-yl)-amide] 3-[(4-morpholin-4-yl-phenyl)-amide]], the TD50 result in series [1] was “** (key: * < 50 μM; ** > 50 μM)”. This compound gave an IC50 in series [2] below 1000 nM.

In the case of `COc1ccc(S(=O)(=O)Nc2ccc(N3CCOCC3)cc2)cc1-c1ccc(C(=O)Nc2ccc(CN3CCS(=O)(=O)CC3)cc2)cc1` [Example 244, 2′-Methoxy-5′-(4-morpholin-4-yl-phenylsulfamoyl)-biphenyl-4-carboxylic acid [4-(1,1-dioxo-1lambda*6*-thiomorpholin-4-ylmethyl)-phenyl]-amide], the TD50 result in series [1] (setting [3]) is “* (* < 50 μM)”. Moreover, the IC50 in series [2] (setting [4]) is below 1000 nM.

Take `Cc1ccc(C(=O)Nc2ccc(N3CCOCC3)cc2)cc1-c1ccc(CN[C@@H](CO)C(=O)O)cc1` [Example 99, (S)-3-Hydroxy-2-{[2′-methyl-5′-(4-morpholin-4-yl-phenylcarbamoyl)-biphenyl-4-ylmethyl]-amino}-propionic acid]: the TD50 entry in series [1] (setting [3]) was “** (** > 50 μM)”. For the same compound, the IC50 in series [2] (setting [4]) lay in the range of 1000 to 5000 nM.
